One data set deals with CRC cancer tissue. Briefly: Gene expression by qPCR in CRC tumor tissue. It is filed as in vivo, mice. As to conditions: CRC mouse model. Here is the method:
Gene expression analysis by quantitative real-time polymerase chain reaction (qPCR) is widely used in molecular biology and genetics research. qPCR allows the detection and quantification of specific RNA transcripts, providing insights into the expression levels of genes under various conditions or in different cell types or tissues. The expression of several genes related to apoptosis, autophagy, DNA synthesis, and inflammatory pathways were analyzed after treatment with 2c, 2cNP, and Apt-2cNP to understand the molecular mechanism behind their cytotoxic effects and to determine differences between aptamer-conjugated and unconjugated nanoparticles. Total RNA from CRC cancer tissue before and after treatment was isolated after completion of treatment time using TRIzol, following the manufacturer’s protocol. The RNA was checked for quality by measuring the […] ratio and quantified in a NanoDrop instrument. Then, cDNAs were prepared using RevertAid First Strand cDNA synthesis kit (ThermoFisher) followed by amplified using SYBR Green Master Mix (BioRad) in a thermal cycler (Veriti 96-well, Applied Biosystems, Massachusetts, USA). Relative transcript abundance values obtained from the instrument were plotted in bar diagrams. A total of 12 genes (caspase 3, Bcl-2, Bcl-XL, Bax, Atg5, LC3B, Beclin, p62, NF-κB, APC, p53, and TOP2) were analyzed for each sample. Sequences of the primers used (both forward primer and reverse primer) for each gene are in Supplementary Table T2.
Background: Real-time PCR tracks product formation cycle by cycle.

For the next data set, the system named is HT-29 cells. Briefly: Colony formation assay. It is filed as cell-based, human. Conditions: HT-29, treated every 3 days for 12–14 days. Here is the method: The colony formation assay, also known as the clonogenic assay, is a cell biology technique used to evaluate the ability of individual cells to undergo unlimited division and form colonies. This assay is commonly employed in cancer research, radiation biology, and drug screening studies to assess cells' proliferative potential and sensitivity to various treatments or conditions. A clonogenic assay was conducted here to evaluate the inhibitory effect of the free drug and nanoencapsulated therapies on the tumor-initiating capacity or colony formation potential of the colorectal cancer cells. About 500 cells were seeded for both the cell lines HT-29 and HCT116 in each well of a 12-well plate, followed by incubation overnight. The cells were treated with 2c, 2cNP, and Apt-2cNP every 3 days for a total of 12–14 days except for the control groups. After completion of drug incubation, the treated medium was withdrawn, and the cells were washed with PBS. 10% acetic acid (in methanol) was used as a fixation buffer, and colonies were stained with crystal violet solution (0.5% crystal violet in 25% methanol) and washed with PBS three times to remove excess dye. […] After imaging, the crystal violet stained colonies were dissolved in 10% acetic acid solution for 15 min under shaking conditions, and the absorbance of the supernatant was detected using a plate reader at 510 nm.

Another data set relates to DMH-induced CRC. The data set is described as follows: In vivo antitumor efficacy, Ki67 immunohistochemistry of colon. Further details: species or system Swiss albino mice; dose or concentration left out as unconfirmed. Conditions: CRC mice. On the procedure: Sprague–Dawley (SD) rats (body weight = 140–160 g) and Swiss albino mice (body weight = 20–25 g) of either sex (male:female = 1:1) were selected for the chemical-induced colorectal carcinoma model. The study plan was prepared as per the guidelines of the Committee for the Purpose of Control and Supervision of Experiments on Animals (CPCSEA), India (JU-AEC; Registration Number: 1805/GO/Re/S/15/CPCSEA) and was sanctioned by the Animal Ethics Committee (AEC), Jadavpur University, (Protocol approval. no.: AEC/PHARM/1701/3/2018). The animals were procured from the National Institute of Nutrition (Hyderabad, India) and were habituated in housing conditions of 25 °C ± 1 °C temperature, 55% ± 5% relative humidity, and normal day/night photoperiod for at least 2 weeks before conducting any experiment. For the development of CRC-bearing mice, Dimethylhydrazine (DMH) was injected intraperitoneally at a dose of 20 mg/kg body weight once a week for 12 weeks. In contrast, for generating CRC-bearing rats, DMH was administered intraperitoneally at a dose of 25 mg/kg body weight once a week for 9 weeks, as described previously.
Evaluating in vivo antitumor efficacy with histopathological observations is essential to preclinical studies in cancer research and drug development. […] Ki67-positive and -negative cells were counted in microscopic images taken after staining using QuPath-0.3.2 software.

Data set [1] relates to CRC tumor microenvironment. Briefly: Cytokines (ELISA) and immune cells (flow cytometry) in CRC tumor microenvironment. The class given is in vivo. As to conditions: CRC mice, 24 h and 48 h. Here is the method: Colorectal tissues were isolated from the CRC-bearing mice before and after treatment with 2c, 2cNP, and Apt-2cNP, followed by washing with ice-cold PBS. Colons were then minced into small pieces and agitated with predigestion buffer (HBSS, 10 mM HEPES, 5 mM EDTA, 1 mM DTT, 5% FBS) for 20 min in a 37 °C incubator-shaker. The single cells suspension from the colonic tissues was prepared using a 100 µm cell strainer. The remaining tissue pieces collected from the cell strainer were then cut into finer fragments and treated with digestion solution (HBSS, 10 mM EDTA, 0.5 mg/ml collagenase D, 3 mg/ml dispase II and 5% FBS) in a 37 °C incubator-shaker for 30 min. The dissociated cells from the tissues were collected again through a 100 µm cell strainer. All the single-cell suspensions were pooled together and centrifuged using Percoll gradient. The lymphocytes were suspended in 4 ml of 40% Percoll solution and layered over 12 ml of 80% Percoll solution. Centrifugation was then carried out without a break at 1000 g for 20 min. The T cells were collected from the liquid interphase and resuspended in PBS or RPMI 1640 medium for further experiments.
To analyze cytokine levels (TNFα, IFNγ, and IL-10) and all other ELISA assays, sandwich ELISA kits were used. […] The reading was monitored using a multi-plate reader and then compared with the standard curve for actual measurement of the cytokine level. […]
(In an ELISA, binding on a coated surface is turned into a signal by an enzyme label.)

A short description of data set [2]: Pharmacokinetic evaluation. The class given is in vivo. Conditions: CRC-bearing mice, intravenous 25 mg/kg, plasma 2c. On the procedure: Pharmacokinetic evaluation informs the time course of drug absorption, distribution, metabolism, and elimination (ADME) within the body. It is a crucial aspect of drug development and is vital in understanding how a drug behaves in vivo. 2c, 2cNP, and Apt-2cNP were injected separately into CRC-bearing mice through intravenous injection (dose: 25 mg/kg). Blood samples were withdrawn at 4 h, 8 h, 10 h, 12 h, 24 h, 48 h, 72 h, and 96 h post-injection, and plasma concentrations of 2c for all samples were determined using LC–MS following a previously described method. A plasma concentration vs time curve was generated using GraphPad Prism (version 5.0). Cmax and Tmax were determined directly from the curve. AUC, AUMC, and AUC0–∞ were calculated using the trapezoidal method. t1/2, MRT, and clearance values were calculated using standard formulas.

These results are taken from article PMC11334571, “EpCAM-targeted betulinic acid analogue nanotherapy improves therapeutic efficacy and induces anti-tumorigenic immune response in colorectal cancer tumor microenvironment” (Journal of Biomedical Science, 2024).

Broadly, the Cmax is the highest concentration seen after dosing. A word on the MRT: it is the average time that molecules of a dose stay in the body. What is called Tmax is the time at which the peak concentration occurs. The term Vd denotes a proportionality between amount in the body and measured concentration, not a real space.

Regarding `C=C(C)[C@@H]1CC[C@]2(C(=O)O)CC[C@]3(C)[C@H](CC[C@@H]4[C@@]5(C)CC[C@H](OC(=O)Cn6cc(CO)nn6)C(C)(C)[C@@H]5CC[C@]43C)[C@@H]12` [2c, (3S)-3-[2-(4-hydroxymethyl-1H-1,2,3-triazol-1-yl)acetyloxy]-lup-20(29)-en-28-oic acid], in the data set on CRC cancer tissue (24 h and 48 h after treatment), the “Topoisomerase-II RNA level” value is reported as “time-dependent decrease”. For the same compound, in the data set on CRC cancer tissue (24 h and 48 h treatment), the “RNA expression of anti-apoptotic genes (Bcl-2 and Bcl-XL)” value is on record as “decrease”; the “RNA expression of pro-apoptotic genes (caspase 3 and Bax)” value is given as “time-dependent increase”. For the same compound, in the data set with CRC cancer tissue (24 h or 48 h after treatment), the “RNA expression of autophagy-related genes (Atg5, LC3B, Beclin)” value was “time-dependent increase” and the p62 expression result was “decrease”. The “Inhibition of colony formation” value in the data set with HT-29 cells is “moderate prohibition in colony formation”. For the same compound, the “Ki67-positive cells in colon” value in the data set on DMH-induced CRC was 58.88 ± 1.2%. For the same compound, in data set [1], the “Percentages of CD4 and CD8 T cells in TME” value is given as “did not change”. Moreover, in data set [2], the “AUC 0-∞” value was found to be 380 ± 44 ng·h/mL, the AUC last amounted to 376 ± 42 ng·h/mL, the AUMC stood at 8381 ± 1644 ng.h2/ml and the Clearance stood at 333 ± 30 mL/h. Besides, in data set [2], the maximum concentration (Cmax) amounted to 23.5 ± 0.55 ng/mL, the MRT turned out to be 22.3 ± 1.72 h, the time of peak concentration (Tmax) is 1 min and the Vd was found to be 2.88 ± 0.15 L. In data set [2], this compound showed a t1/2 of 6 ± 0.5 h.
